“And” between values parts separate entries of the source, which are not always exact repeats. Identical values can stand only once.
How the values were obtained:
mice [1] = assay: Formalin test, mouse; assay type: in vivo; details: for formalin test phases: HMBA 100 mg/kg
Description: (§1) The animals received an intraplantar injection of a 2.5% formalin solution (50 µl rat, 25 µl mouse) into a hind paw. The time spent biting and licking of the injected paw was monitored during the two typical phases of the nociceptive response (phase I: 0–5 min; phase II: 20–40 min in rats or 15–40 min in mice).

mice [2] = assay: von Frey filament test, mouse; assay type: in vivo; details: 30 mg/kg i.p.
From the text: Calibrated von Frey filaments (0.0045–5.4950 g) were used to induce light noxious mechanical stimulation in mice. Tests were commenced after one hour of habituation. Filaments of increasing stiffness were applied five times perpendicular to the plantar surface of the hindpaw and pressed until bending. The first filament that evoked at least three consecutive responses was assigned as the threshold (cut-off 2 g).

rodents = details: doses not far from those eliciting antinociception in rodents; cited from earlier work
mice [3] = assay: Tail immersion test, mouse; assay type: in vivo; details: 30 mg/kg i.p.
Description: Tails of mice were submerged in a hot water bath (46°C) and the withdrawal latency recorded (cut-off 15 s). The mean of four baseline values were determined before drug administration.

rats [4] = assay: Formalin test, rat; assay type: in vivo; details: 4-aminophenol 10, 30 and 100 mg/kg i.p.
Description: as §1

rats [5] = assay: Paw pressure test, rat
Description: The behavioural tests were performed in a quiet room and evaluated by a single investigator in a blinded manner. Treatments and/or genotypes were randomized in blocks and the number of animals in each block corresponded to the number of treatments and/or genotypes compared. […] Each animal was exposed to only one treatment.
The rats were submitted to the paw pressure test, using an Ugo Basile analgesy meter with a probe tip diameter of 1 mm (Bioseb, France). Nociceptive thresholds, expressed in grams (g), were measured by applying an increasing pressure to the right hind paw until a squeak (vocalization thresholds) was obtained (cut-off 750 g). Two consecutive stable vocalisation threshold values were first obtained (baseline).
Intrathecal injections were performed on anaesthetised rats held in one hand by the pelvic girdle. A 25 gauge 1 inch needle connected to a 25 µl Hamilton syringe was then inserted into the subarachnoidal space between lumbar vertebrae L5 and L6 until a tail flick was elicited. The syringe was held in position for few seconds after the injection of a volume of 10 µl [49]. All injections were performed under isoflurane anaesthesia (4% induction, 2% maintenance).

[6] = Global brain levels of endocannabinoids in the rat after 4-aminophenol; assay type: in vivo; details: 4-aminophenol 100 mg/kg i.p.; 15, 30, 45 and 60 min
Description: (§2) The whole brain was homogenized in ice-cold 10 mM Tris buffer (ml/g tissue) at pH 7.6. The buffer solution contained 1 mM EDTA, 0.3 mM ascorbic acid and 10 µM methylarachidonylfluorophosphonate (MAFP) to prevent degradation of AM404, arvanil, olvanil, anandamide and 2-arachidonoylglycerol. Aliquots (200 µl) of blood and homogenates were precipitated with 1 ml ice-cold acetone, containing AM404-D4 (5 nM) or anandamide-D8 (100 nM) as internal standard. After centrifugation at 25,200 g for 30 min at 4°C, the supernatants were collected in polypropylene tubes and vacuum evaporated. The protein content of the pellet was determined with Coomassie protein assay (Pierce; Illinois, USA), using bovine serum albumin as standard. […] Samples were analyzed on a Waters Aquity UPLC system coupled to a Sciex 5500 tandem mass spectrometer (LC-MS/MS; AB Sciex; Massachusetts, USA) or a Perkin Elmer 200 HPLC system coupled to an API 3000 tandem mass spectrometer (LC-MS-MS; Applied Biosystems/MDS-SCIEX).
Quantification of anandamide and 2-arachidonoylglycerol. Anandamide (m/z 348.2/62.0), anandamide-D8 (m/z 356.4/63.0) and 2-arachidonoylglycerol (m/z 379.2/287.0) were determined as previously described. Since 2-arachidonoylglycerol is non-enzymatically converted to 1-arachidonoylglycerol, the content of 2-arachidonoylglycerol was estimated as the sum of these lipids. […]

[7] = Contents of amines and lipid metabolites in blood and brain after i.p. injection in mice (LC-MS/MS); assay type: in vivo, mouse
Description: Twenty min after drug administration, the animals were anesthetized by CO2 (rats) or isoflurane (mice) inhalation and decapitated. The brain was removed from the skull and blood was collected in test tubes, containing 60 µl buffered citrate, and the tissues snap frozen in liquid nitrogen before storage at −70°C.
as §2
(§3) Quantification of AM404, HPODA, arvanil and olvanil. Samples were analyzed on a Waters Aquity UPLC system coupled to a Sciex 5500 tandem mass spectrometer. Sample aliquots of 5 µl were injected into an Acquity UPLC BEH C18 column (100 × 2 mm, 1.7 µm; Waters) held at 50°C. All mobile phases were water-acetonitrile gradients, containing 0.1% formic acid and using a flow rate of 400 µl/min. The acetonitrile content was initially 30%, then increased linearly to 100% over 7 min and kept at this level for 4 min, followed by an equilibration period at 30% for 2 min. The electrospray interface was operating in the positive ion mode at 550°C and the ion spray voltage was set to 5000 volts. The mass transitions (m/z) used were the following: 396.2/110.1 for AM404, 374.2/110.0 for HPODA, 400.2/114.0 for AM404-D4, 440.3/137.1 for arvanil and 418.3/137.1 for olvanil. The declustering potentials were between 96 and 130 volts and the collision energies between 25 and 41 volts.
Quantification of 4-aminophenol and HMBA. Sample aliquots of 5 µl were injected into a Hypercarb column (50 × 2.1 mm; Thermo). All mobile phases were water-acetonitrile gradients, containing 0.1% formic acid. The acetonitrile content was initially 2%, then increased linearly to […] over 5 min and then kept at 100% for 1 min, followed by an equilibration period at 2% for 1.5 min. The electrospray ion source was set at 550°C and used in the positive ion mode with an ion spray voltage of 5000. […] HMBA loses the amino group already in the source of the MS and therefore the mass transition used was 137.0/94.0. The declustering potentials were 100 and 90 volts and the collision energies 21 and 29 volts. No internal standard was used for these analyses.
The contents of the compounds were expressed either in moles or as normalized peak areas (nPA) and related to the protein content in the samples. The nPA was obtained by dividing the peak area of the analyte with the peak area for the internal standard in the same sample. The detection limits were calculated as the concentrations corresponding to three times the standard deviation of the blanks. When levels were below detection limit, numerical values of half the detection limit were used in the calculations.

rats [8] = details: 4-aminophenol three doses, data not shown
mice [9] = assay: Spontaneous locomotor activity in actimetry boxes; assay type: in vivo, mouse; details: 10 min before test
Description: Mice were placed in actimetry boxes (Actisystem; Apelex, France) and spontaneous motor activity was assessed by determining the number of crossings of light beams during 15 min.

[10] = Formation of arvanil and olvanil in brain homogenates incubated with HMBA; assay type: in vitro ADME, rat; details: HMBA 100 µM, 60 min
Description: Rat brain homogenate were prepared, as previously described. Brains were homogenized in Tris buffer (10 mM, pH 7.6), containing ethylenediaminetetraacetic acid (EDTA; 1 mM), at volumes of 5–10 ml/g tissue. Experiments were carried out on aliquots of 200 µl homogenate at 37°C as further explained in the text. The reactions were stopped by adding 1 ml ice-cold acetone, containing 1 µM [^2H8]-anandamide. The samples were kept on ice until the acetone phase was vacuum evaporated.
as §3, with “The declustering potentials were between 96 and 130 volts and the collision energies between 25 and 41 volts.” left out

rat orthologue of TRPV1 = tested on: rat orthologue of TRPV1; parameters: method as in PMID 11159715; details: 45Ca2+ uptake assay, CHO cells expressing rat TRPV1; cited from earlier work
human TRPV1 = tested on: human TRPV1; parameters: method as in PMID 11033355; details: HEK293 cells expressing human TRPV1, fluorometric calcium imaging; cited from earlier work
TRPV1 = molecular target: T1, TRPV1 (Rattus norvegicus, UniProt O35433); assay: TRPV1 activation assessed as nerve-mediated vasorelaxation in rat isolated mesenteric arteries; assay type: cell-based
T1 construct: rat mesenteric arterial segments precontracted with phenylephrine; from tissue; host or cells: rat isolated mesenteric arterial segments (Sprague-Dawley rats)
T1 sequence (O35433 whole entry): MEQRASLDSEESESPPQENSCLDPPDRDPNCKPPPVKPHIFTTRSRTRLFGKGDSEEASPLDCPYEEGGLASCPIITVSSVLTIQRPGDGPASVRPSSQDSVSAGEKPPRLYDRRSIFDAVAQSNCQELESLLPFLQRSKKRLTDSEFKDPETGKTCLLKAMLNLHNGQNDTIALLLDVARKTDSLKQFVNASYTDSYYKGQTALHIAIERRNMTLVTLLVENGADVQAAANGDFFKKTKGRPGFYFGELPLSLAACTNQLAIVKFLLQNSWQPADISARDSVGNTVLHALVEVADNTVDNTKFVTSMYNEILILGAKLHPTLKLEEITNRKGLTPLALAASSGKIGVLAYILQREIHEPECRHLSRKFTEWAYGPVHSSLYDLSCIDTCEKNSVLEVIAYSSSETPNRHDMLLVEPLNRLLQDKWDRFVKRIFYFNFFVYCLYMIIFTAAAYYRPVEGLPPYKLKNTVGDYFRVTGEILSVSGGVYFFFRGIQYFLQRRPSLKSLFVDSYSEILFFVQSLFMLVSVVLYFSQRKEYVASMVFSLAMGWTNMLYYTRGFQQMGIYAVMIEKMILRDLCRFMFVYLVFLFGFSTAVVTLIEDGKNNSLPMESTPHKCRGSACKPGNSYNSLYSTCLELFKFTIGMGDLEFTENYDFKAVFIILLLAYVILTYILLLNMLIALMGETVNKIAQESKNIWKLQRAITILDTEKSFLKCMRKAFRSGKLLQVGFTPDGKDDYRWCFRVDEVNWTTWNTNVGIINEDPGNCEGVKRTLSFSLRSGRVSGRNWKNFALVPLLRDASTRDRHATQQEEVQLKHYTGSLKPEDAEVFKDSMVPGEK
Description: TRPV1 activation was assessed indirectly on rat isolated mesenteric arteries, using nerve-mediated vasorelaxation as readout. Briefly, arterial segments (2 mm long) were suspended between two stainless steel wires in temperature-controlled tissue baths (37°C), containing aerated (95% O2 and 5% CO2) physiological salt solution (composition in mM: NaCl 119, KCl 4.6, CaCl2 1.5, MgCl2 1.2, NaHCO3 15, NaH2PO4 1.2 and D-glucose 6; pH 7.4), under a passive load of 2 mN. One of the wires was connected to a force-displacement transducer model FT03 C (Grass Instruments; Rhode Island, USA) for isometric tension recording. Vasorelaxation was studied in arterial segments submaximally contracted with phenylephrine. Increasing concentrations of AM404, arvanil, olvanil and HPODA in the absence and presence of capsazepine (3 µM) were then added cumulatively to determine concentration-response relationships. All experiments were performed in the presence of indomethacin (10 µM) and N^ω-nitro-L-arginine (300 µM) to reduce cyclooxygenase and nitric oxide synthase activity, respectively.
Data are presented as the mean ± SEM, and n indicates the number of animal tested in each group. pEC50 of the lipid metabolites indicates the negative log concentration that elicited half-maximal vasorelaxation. Mann-Whitney U test or Student’s t-test was used when two groups were compared. When multiple groups were compared, Kruskal-Wallis one-way ANOVA followed by Dunn’s multiple comparisons test was used. Data from the paw pressure test were analyzed by repeated measures two-way ANOVA followed by Sidak’s or Dunnett’s multiple comparisons test. The level of statistical significance was set at p<0.05. GraphPad Prism 6.0 software (California, USA) was used in all calculations and statistical analyses.

[11] = 4-aminophenol 30 mg/kg i.p., mouse
[12] = 4-aminophenol 100 mg/kg i.p., mouse
[13] = 20 min after 4-AP 30 mg/kg i.p., mouse
[14] = 20 min after 4-AP 100 mg/kg i.p., mouse

Nc1ccc(O)cc1 [4-aminophenol]
licking time in formalin test (mice [1]; 30 mg/kg i.p., FAAH+/+ mice): reduced the licking time during the first and second phases
antinociception in formalin test (mice [1]; 30 mg/kg i.p., FAAH−/− mice): failed to produce antinociception
antinociceptive activity in formalin test (mice [1]; 30 mg/kg i.p., TRPV1−/− mice): lost
withdrawal threshold in von Frey test (mice [2]; FAAH+/+ mice): increased the withdrawal threshold
antinociception in von Frey test (mice [2]; FAAH−/− mice): failed to produce antinociception
antinociceptive activity in von Frey test (mice [2]; TRPV1−/− mice): lost
nephrotoxic effect after a single exposure (rodents): renal tubular necrosis
latency time in tail immersion test (mice [3]; FAAH+/+ mice): increased
antinociception in tail immersion test (mice [3]; FAAH−/− mice): failed to produce antinociception
antinociceptive activity in tail immersion test (mice [3]; TRPV1−/− mice): lost
licking time in rat formalin test (rats [4]): Only the highest dose reduced both phases
withdrawal threshold in rat paw pressure test (rats [5]; 100 mg/kg i.p., 15 and 30 min after administration): increased the withdrawal threshold
withdrawal threshold in rat paw pressure test (rats [5]; intermediate dose 30 mg/kg i.p.): effective only at 15 min
withdrawal threshold in rat paw pressure test (rats [5]; low dose 10 mg/kg i.p.): inactive
global levels of the endocannabinoids anandamide and 2-arachidonoylglycerol in the rat brain [6]: did not affect the global levels
quotient between brain levels of 4-aminophenol and AM404 [7, 11]: 223
quotient between brain levels of 4-aminophenol and HPODA [7, 11]: 951
quotient between brain levels of 4-aminophenol and AM404 [7, 12]: 1,547
quotient between brain levels of 4-aminophenol and HPODA [7, 12]: 9,376
Blood 4-AP [7, 13]: 283 ± 15 nmol/g
Brain 4-AP [7, 13]: 91 nmol/g
Brain 4-AP ([7]; 20 min after 4-AP 30 mg/kg i.p., mouse, listed as 4-AP): 91 ± 12 nmol/g
Blood 4-AP [7, 14]: 878 ± 157 nmol/g
Brain 4-AP [7, 14]: 7470 ± 1720 nmol/g
locomotor activity (rats [8]): tolerated all three doses
locomotor activity (mice [9]; 4-aminophenol 10, 30 and 100 mg/kg i.p.): reduced locomotor activity after the highest dose

COc1cc(CN)ccc1O [HMBA, 4-hydroxy-3-methoxybenzylamine]
formalin test phases (mice [1]; FAAH−/− mice): affected none of these phases
formalin test phases (mice [1]; wild-type mice): inhibited both the first and second phases
formation of N-acylamines in brain homogenates [10]: leads to the formation of arvanil and olvanil
locomotor activity (mice [9]; HMBA 100, 200 and 300 mg/kg i.p.): only the dose of 100 mg/kg failed to affect locomotion

CCCCC/C=C\C/C=C\C/C=C\C/C=C\CCCC(=O)NCc1ccc(O)c(OC)c1 [arvanil, N-(4-hydroxy-3-methoxybenzyl)-5Z,8Z,11Z,14Z-eicosatetraenamide]
times more potent than AM404 (rat orthologue of TRPV1): 933 times
times more potent than AM404 (human TRPV1): approximately 50 times
Brain Arvanil ([7]; 20 min after HMBA 100 mg/kg i.p., mouse): 3.33 pmol/g
Brain Arvanil ([7]; 20 min after HMBA 100 mg/kg i.p., mouse, listed as Arvanil): 3.33 ± 0.33 pmol/g
Brain Arvanil ([7]; 20 min after HMBA 300 mg/kg i.p., mouse): 56 ± 10 pmol/g
brain content in FAAH−/− mice compared to FAAH+/+ littermates ([7]; 20 min after i.p. 4-aminophenol (30 and 100 mg/kg) or HMBA (300 mg/kg)): substantially reduced
concentration at 20 min ([7]; in vivo, HMBA 100 mg/kg, mouse, read-out: brain content of arvanil): 3.33 pM
EC50 (TRPV1): 0.2 nM
times more potent than AM404 as TRPV1 activator (TRPV1; vasorelaxation readout): > 100 times and 172 times
times more potent than HPODA as TRPV1 activator (TRPV1; vasorelaxation readout): > 300 times
